Several values for one entry are separate records, joined by “and”; a condition that tells them apart may be missing. Equal entries are not always repeated.
Key:
MCF-7 cells = test: Cell viability assay (PrestoBlue), MCF-7; type: cell-based, human; conditions: MCF-7, 72 h
Method: (§1) Cell viability assays were carried out to investigate the anti-proliferative effect of the AGCs. […] Auranofin was used for comparative purposes. […] Cells were incubated with the compounds for 72 hours and viability was assessed with Presto Blue. […] As mentioned before, linkers bring considerable advantages in terms of ADC stability.
(§2) Cell viability analysis for all compounds and AGCs described.
(§3) MCF7, MCF10A and BT-474 were obtained from the American Type Culture Collection (ATCC) (Manassas, Va.) and cultured in Dulbecco's modified Eagle's medium (DMEM) (Mediatech) supplemented with 10% FBS, 1% NEAA and 1% penicillin-streptomycin (MCF7 AND MCF1 OA) or DME HG/F12K, NEAA, 2 mM glutamine, 10% FBS/PS and incubated at 37° C. and 5% CO2 in a humidified incubator.
(§4) After 72 h, cell viability was determined by means of the colorimetric cell viability assay PrestoBlue (Invitrogen, Carlsbad, Calif.) according to the manufacturer's intructions. EC50 were fit using GraphPad Prism 7 to best match the experimental data.
(§5) Tables 3 and Table 4 show EC50 Values (μM) in MCF7, MCF10A and BT474 cell lines determined with [AuCl(PPh3)] (DMF), [Au(mba)(PPh3)]

BT-474 cells = test: Cell viability assay (PrestoBlue), BT-474; type: cell-based, human; conditions: BT-474, 72 h
Method: as §1, §2, §3, §4, §5

MCF-10A cells = test: Cell viability assay (PrestoBlue), MCF-10A; type: cell-based, human; conditions: MCF-10A non-cancerous breast cell line, 72 h
Method: as §1, §2, §3, §4, §5

[1] = DMSO solution at room temperature; cited from earlier work
[2] = humans, rheumatoid arthritis medication; cited from earlier work

Molecule | EC50 (MCF-7 cells) | EC50 (BT-474 cells) | EC50 (MCF-10A cells) | time stable in solution [1] | patients affected by most severe side effects (diarrhea and rashes) [2]
[Au(mba)(PPh3)] [reference compound] | 2.4 µM and 2.36 µM | 3.51 ± 0.16 µM | 5.52 ± 0.36 µM | – | –
[Cl][Au].c1ccc(P(c2ccccc2)c2ccccc2)cc1 [[AuCl(PPh3)], reference compound] | 3.6 µM and 3.57 µM | 3.32 ± 0.1 µM | 18.9 ± 1.3 µM | – | –
CC[P](CC)(CC)=[Au][S][C@@H]1O[C@H](COC(C)=O)[C@@H](OC(C)=O)[C@H](OC(C)=O)[C@H]1OC(C)=O [AF, [(2R,3R,4S,5R,6S)-3,4,5-tris(acetyloxy)-6-{[(triethyl-λ5-phosphanylidene)aurio]sulfanyl}-oxan-2-yl]methyl acetate] | – | – | – | > 72 h | 26-40%

Source: US11141490B2, “Antibody-drug conjugates based on gold compounds” (Research Foundation of the City University of New York, priority 2018, dated 2021)
